Consider five compounds from patent US20230265151A1, “GIP/GLP1 CO-AGONIST COMPOUNDS” (priority 2020, published 2023).

As usually defined, the EC50 is the concentration at which the effect is half-maximal. Usually Emax stands for the maximal effect, on the per cent scale that the assay sets.

Like-named read-outs stand apart in the source and are kept apart here. Some results are limits rather than exact numbers.

Type in all cases: cell-based
One experiment concerns the target T1, hGCGR (Homo sapiens, UniProt P47871).
T1 construct: expressed in transfected cells
In words: Functional cAMP formation (HTRF) in HEK-293 clonal cells expressing hGCGR, 0.1% bovine casein, without or with 1.0% human serum albumin. Particulars: cAMP, incubated at 37° C., 0.1% bovine casein (no human serum albumin); geometric mean; read-out: hGCGR EC50, nM (SEM, n). The procedure: (§1) After a 30-min incubation at 37° C., the resulting increase in intracellular cAMP is quantitatively determined using a CisBio cAMP Dynamic 2 HTRF Assay Kit (62AM4PEJ). Briefly, cAMP levels within the cell are detected by adding the cAMP-d2 conjugate in cell lysis buffer (10 µL) followed by the antibody anti-cAMP-Eu^3+-Cryptate, also in cell lysis buffer (10 µL). The resulting competitive assay is incubated for at least 60 min at room temperature, and then is detected using a PerkinElmer Envision® instrument with excitation at 320 nm and emission at 665 nm and 620 nm. Envision units (emission at 665 nm/620 nm* 10,000) are inversely proportional to the amount of cAMP present and are converted to nM cAMP per well us-ing a cAMP standard curve. […] A relative EC50 value and percent top (Emax) are derived by non-linear regression analysis using the percent maximal response vs. the concentration of peptide added, fitted to a four-parameter logistic equation.
(Cyclic AMP is a second messenger, typically raised through Gs and lowered through Gi signalling.)

For a further experiment, the target named is T2, hGIPR (Homo sapiens, UniProt P48546).
T2 construct: expressed in transfected cells
T2 sequence (P48546 22-466): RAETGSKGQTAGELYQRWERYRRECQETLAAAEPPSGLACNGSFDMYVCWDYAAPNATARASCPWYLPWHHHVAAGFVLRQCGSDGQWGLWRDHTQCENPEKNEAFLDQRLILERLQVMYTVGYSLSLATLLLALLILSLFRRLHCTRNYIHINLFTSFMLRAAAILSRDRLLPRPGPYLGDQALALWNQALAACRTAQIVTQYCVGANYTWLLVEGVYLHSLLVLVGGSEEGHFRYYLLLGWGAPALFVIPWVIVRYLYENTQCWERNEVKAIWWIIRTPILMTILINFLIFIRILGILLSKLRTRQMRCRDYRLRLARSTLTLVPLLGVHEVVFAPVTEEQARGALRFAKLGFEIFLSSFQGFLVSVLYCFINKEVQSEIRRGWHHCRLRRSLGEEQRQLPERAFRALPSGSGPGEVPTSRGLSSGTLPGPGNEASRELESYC
In words: Functional cAMP formation (HTRF) in HEK-293 clonal cells expressing hGIPR, 0.1% bovine casein, without or with 1.0% human serum albumin. The procedure: as §1

A further experiment deals with hGLP-1R (Homo sapiens, UniProt P43220). In words: Functional cAMP formation (HTRF) in HEK-293 clonal cells expressing hGLP-1R, 0.1% bovine casein, without or with 1.0% human serum albumin. Details: expressed in transfected cells. The conditions noted are these: percent of maximal response to GLP-1(7-36)NH2. As to the method:
as §1

[1] abbreviates: HEK293, 0.1% bovine casein and 1.0% human serum albumin, 37° C., percent of maximal response to GIP(1-42)NH2, read-out: hGIPR Emax, % ± SEM.

Sequence of hGLP-1R (P43220 24-463): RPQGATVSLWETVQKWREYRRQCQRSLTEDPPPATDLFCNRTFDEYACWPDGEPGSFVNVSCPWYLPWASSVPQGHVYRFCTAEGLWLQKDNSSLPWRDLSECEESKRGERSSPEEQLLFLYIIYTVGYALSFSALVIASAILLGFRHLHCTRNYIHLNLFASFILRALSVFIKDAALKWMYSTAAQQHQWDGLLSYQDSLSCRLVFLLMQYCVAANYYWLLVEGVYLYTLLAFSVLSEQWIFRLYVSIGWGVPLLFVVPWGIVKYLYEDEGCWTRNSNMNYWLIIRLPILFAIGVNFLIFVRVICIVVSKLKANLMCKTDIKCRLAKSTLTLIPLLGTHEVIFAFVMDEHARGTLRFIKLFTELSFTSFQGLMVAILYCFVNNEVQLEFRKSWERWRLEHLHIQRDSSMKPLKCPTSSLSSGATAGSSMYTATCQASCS
T1 sequence (P47871 26-477): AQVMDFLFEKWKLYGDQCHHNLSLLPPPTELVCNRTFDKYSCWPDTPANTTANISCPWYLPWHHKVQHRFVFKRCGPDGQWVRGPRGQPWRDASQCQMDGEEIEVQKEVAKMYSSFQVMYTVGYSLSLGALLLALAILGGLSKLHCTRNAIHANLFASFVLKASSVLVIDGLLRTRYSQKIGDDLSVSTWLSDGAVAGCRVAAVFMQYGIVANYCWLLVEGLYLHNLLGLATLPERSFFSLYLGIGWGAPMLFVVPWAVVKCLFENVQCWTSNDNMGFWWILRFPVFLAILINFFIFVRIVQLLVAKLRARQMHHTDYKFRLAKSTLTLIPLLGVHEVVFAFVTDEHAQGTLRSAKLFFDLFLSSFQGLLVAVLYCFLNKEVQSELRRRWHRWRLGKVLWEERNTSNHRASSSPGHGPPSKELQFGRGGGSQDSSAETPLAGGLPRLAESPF

For `CC[C@H](C)[C@H](NC(=O)[C@H](CC(C)C)NC(=O)[C@](C)(Cc1ccc(O)cc1)NC(=O)[C@@H](CCC(=O)O)NC(=O)[C@@H](NC(=O)[C@H](Cc1ccccc1)NC(=O)[C@H](CCC(=O)O)NC(=O)C(C)(C)NC(=O)[C@H](CCC(N)=O)NC(=O)[C@H](C)NC(=O)[C@H](CCCCNC(=O)COCCOCCNC(=O)COCCOCCNC(=O)CC[C@H](NC(=O)CCCCCCCCCCCCC(=O)O)C(=O)O)NC(=O)[C@H](CCCN)NC(=O)[C@H](CC(=O)O)NC(=O)[C@H](CC(C)C)NC(=O)[C@](C)(CC(C)C)NC(=O)[C@@H](NC(=O)[C@H](CO)NC(=O)[C@H](Cc1ccc(C(=O)O)cc1)NC(=O)[C@H](CC(=O)O)NC(=O)[C@H](CO)NC(=O)[C@@H](NC(=O)[C@](C)(Cc1ccccc1F)NC(=O)[C@@H](NC(=O)CNC(=O)[C@H](CCC(=O)O)NC(=O)C(C)(C)NC(=O)[C@@H](N)Cc1ccc(O)cc1)[C@@H](C)O)[C@@H](C)O)[C@@H](C)CC)[C@@H](C)CC)C(=O)N[C@@H](CCC(=O)O)C(=O)NCC(=O)NCC(=O)N[C@@H](CCCCNC(=O)COCCOCCNC(=O)COCCOCCNC(=O)CC[C@H](NC(=O)CCCCCCCCCCCCC(=O)O)C(=O)O)C(=O)N[C@@H](CO)C(=O)N[C@@H](CO)C(=O)NCC(=O)N[C@@H](C)C(=O)N1CCC[C@H]1C(=O)N1CCC[C@H]1C(=O)N1CCC[C@H]1C(=O)N[C@@H](CO)C(N)=O` [Example 96], the concentration giving a half-maximal response (EC50) on hGCGR is more than 9950 nM.
Regarding `CC[C@H](C)[C@H](NC(=O)[C@H](CC(C)C)NC(=O)[C@](C)(Cc1ccc(O)cc1)NC(=O)[C@@H](CCC(=O)O)NC(=O)[C@@H](NC(=O)[C@H](Cc1ccccc1)NC(=O)[C@H](CCCN)NC(=O)C(C)(C)NC(=O)[C@H](CCC(N)=O)NC(=O)[C@H](C)NC(=O)[C@H](CCCCNC(=O)COCCOCCNC(=O)COCCOCCNC(=O)CC[C@H](NC(=O)CCCCCCCCCOc1ccc(C(=O)O)cc1)C(=O)O)NC(=O)[C@H](CCCN)NC(=O)[C@H](CC(=O)O)NC(=O)[C@H](CC(C)C)NC(=O)[C@](C)(CC(C)C)NC(=O)[C@@H](NC(=O)C(C)(C)NC(=O)[C@H](Cc1ccncc1)NC(=O)[C@H](CC(=O)O)NC(=O)[C@H](CO)NC(=O)[C@@H](NC(=O)[C@](C)(Cc1ccccc1F)NC(=O)[C@@H](NC(=O)CNC(=O)[C@H](CCC(=O)O)NC(=O)C(C)(C)NC(=O)[C@@H](N)Cc1ccc(O)cc1)[C@@H](C)O)[C@@H](C)O)[C@@H](C)CC)[C@@H](C)CC)C(=O)N[C@@H](CCCCNC(=O)COCCOCCNC(=O)COCCOCCNC(=O)CC[C@H](NC(=O)CCCCCCCCCOc1ccc(C(=O)O)cc1)C(=O)O)C(=O)NCC(=O)NCC(=O)N1CCC[C@H]1C(=O)N[C@@H](CO)C(=O)N[C@@H](CO)C(=O)NCC(=O)N[C@@H](C)C(=O)N1CCC[C@H]1C(=O)N1CCC[C@H]1C(=O)N1CCC[C@H]1C(=O)N[C@@H](CO)C(N)=O` [Example 351], the Emax came out at 67.9% on hGIPR (HEK293, read-out: hGIPR Emax, % ± SEM, cAMP, 37° C., 0.1% bovine casein and 1.0% human serum albumin, percent of maximal response to GIP(1-42)NH2); 91% on hGLP-1R (HEK293, read-out: hGLP-1R Emax, % ± SEM, cAMP, 37° C., 0.1% bovine casein and 1.0% human serum albumin); 100% on hGLP-1R (HEK293, read-out: hGLP-1R Emax, % ± SEM, cAMP, 37° C., 0.1% bovine casein, arithmetic mean).
On to `CC[C@H](C)[C@H](NC(=O)[C@H](CC(C)C)NC(=O)[C@](C)(Cc1ccc(O)cc1)NC(=O)[C@@H](CCC(=O)O)NC(=O)[C@@H](NC(=O)[C@H](Cc1ccccc1)NC(=O)[C@H](CCC(=O)O)NC(=O)C(C)(C)NC(=O)[C@H](CCC(N)=O)NC(=O)[C@H](C)NC(=O)[C@H](CCCCNC(=O)COCCOCCNC(=O)COCCOCCNC(=O)CC[C@H](NC(=O)CCCCCCCCCCCCC(=O)O)C(=O)O)NC(=O)[C@H](CCCN)NC(=O)[C@H](CC(=O)O)NC(=O)[C@H](CC(C)C)NC(=O)[C@](C)(CC(C)C)NC(=O)[C@@H](NC(=O)[C@H](CO)NC(=O)[C@H](Cc1csc2ccccc12)NC(=O)[C@H](CC(=O)O)NC(=O)[C@H](CO)NC(=O)[C@@H](NC(=O)[C@](C)(Cc1ccccc1F)NC(=O)[C@@H](NC(=O)CNC(=O)[C@H](CCC(=O)O)NC(=O)C(C)(C)NC(=O)[C@@H](N)Cc1ccc(O)cc1)[C@@H](C)O)[C@@H](C)O)[C@@H](C)CC)[C@@H](C)CC)C(=O)N[C@@H](CCC(=O)O)C(=O)NCC(=O)NCC(=O)N[C@@H](CCCCNC(=O)COCCOCCNC(=O)COCCOCCNC(=O)CC[C@H](NC(=O)CCCCCCCCCCCCC(=O)O)C(=O)O)C(=O)N[C@@H](CO)C(=O)N[C@@H](CO)C(=O)NCC(=O)N[C@@H](C)C(=O)N1CCC[C@H]1C(=O)N1CCC[C@H]1C(=O)N1CCC[C@H]1C(=O)N[C@@H](CO)C(N)=O` [Example 142], for which the EC50 on hGCGR is more than 9950 nM.
Turning to `CC[C@H](C)[C@H](NC(=O)[C@H](CC(C)C)NC(=O)[C@](C)(Cc1ccc(O)cc1)NC(=O)[C@@H](CCC(=O)O)NC(=O)[C@@H](NC(=O)[C@H](Cc1ccccc1)NC(=O)[C@H](CCC(=O)O)NC(=O)C(C)(C)NC(=O)[C@H](CCC(N)=O)NC(=O)[C@H](C)NC(=O)[C@H](CCCCNC(=O)COCCOCCNC(=O)COCCOCCNC(=O)CCCCCCCCCCCCC(=O)O)NC(=O)[C@H](CCCN)NC(=O)[C@H](CC(=O)O)NC(=O)[C@H](CC(C)C)NC(=O)[C@](C)(CC(C)C)NC(=O)[C@@H](NC(=O)[C@H](CO)NC(=O)[C@H](Cc1ccc2ccccc2c1)NC(=O)[C@H](CC(=O)O)NC(=O)[C@H](CO)NC(=O)[C@@H](NC(=O)[C@](C)(Cc1ccccc1F)NC(=O)[C@@H](NC(=O)CNC(=O)[C@H](CCC(=O)O)NC(=O)C(C)(C)NC(=O)[C@@H](N)Cc1ccc(O)cc1)[C@@H](C)O)[C@@H](C)O)[C@@H](C)CC)[C@@H](C)CC)C(=O)N[C@@H](CCC(=O)O)C(=O)NCC(=O)NCC(=O)N1CCC[C@H]1C(=O)N[C@@H](CO)C(=O)N[C@@H](CO)C(=O)NCC(=O)N[C@@H](C)C(=O)N1CCC[C@H]1C(=O)N1CCC[C@H]1C(=O)N1CCC[C@H]1C(=O)N[C@@H](CO)C(=O)N[C@@H](CCCCNC(=O)COCCOCCNC(=O)COCCOCCNC(=O)CCCCCCCCCCCCC(=O)O)C(N)=O` [Example 257], the Emax on hGIPR (setting [1]) is 72.2%; on hGIPR (HEK293, cAMP, 37° C., 0.1% bovine casein, percent of maximal response to GIP(1-42)NH2, arithmetic mean, read-out: hGIPR Emax, % ± SEM), 90.3%; on hGLP-1R (HEK293, cAMP, 37° C., 0.1% bovine casein, arithmetic mean, read-out: hGLP-1R Emax, % ± SEM), 82%.
As for `CC[C@H](C)[C@H](NC(=O)[C@H](CC(C)C)NC(=O)[C@](C)(Cc1ccc(O)cc1)NC(=O)[C@@H](CCC(=O)O)NC(=O)[C@@H](NC(=O)[C@H](Cc1ccccc1)NC(=O)[C@H](CCC(=O)O)NC(=O)C(C)(C)NC(=O)[C@H](CCC(N)=O)NC(=O)[C@H](C)NC(=O)[C@H](CCCCNC(=O)[C@@H](N)CCCCNC(=O)CC[C@H](NC(=O)CC[C@H](NC(=O)CCCCCCCCCCCCC(=O)O)C(=O)O)C(=O)O)NC(=O)[C@H](CCCN)NC(=O)[C@H](CC(=O)O)NC(=O)[C@H](CC(C)C)NC(=O)[C@](C)(CC(C)C)NC(=O)[C@@H](NC(=O)[C@H](CO)NC(=O)[C@H](Cc1ccncc1)NC(=O)[C@H](CC(=O)O)NC(=O)[C@H](CO)NC(=O)[C@@H](NC(=O)[C@](C)(Cc1ccccc1F)NC(=O)[C@@H](NC(=O)CNC(=O)[C@H](CCC(=O)O)NC(=O)C(C)(C)NC(=O)[C@@H](N)Cc1ccc(O)cc1)[C@@H](C)O)[C@@H](C)O)[C@@H](C)CC)[C@@H](C)CC)C(=O)N[C@@H](CCC(=O)O)C(=O)NCC(=O)NCC(=O)N[C@@H](CCCCNC(=O)[C@@H](N)CCCCNC(=O)CC[C@H](NC(=O)CC[C@H](NC(=O)CCCCCCCCCCCCC(=O)O)C(=O)O)C(=O)O)C(=O)N[C@@H](CO)C(=O)N[C@@H](CO)C(=O)NCC(=O)N[C@@H](C)C(=O)N1CCC[C@H]1C(=O)N1CCC[C@H]1C(=O)N1CCC[C@H]1C(=O)N[C@@H](CO)C(N)=O` [Example 39], the Emax at hGIPR (setting [1]) turned out to be 86.8 ± 3.27%; at hGIPR (HEK293, percent of maximal response to GIP(1-42)NH2, 37° C., 0.1% bovine casein, arithmetic mean, read-out: hGIPR Emax, % ± SEM), 96.5 ± 1.44%.
